# Where “and” joins values, the source holds several entries; their conditions need not be identical. Equal values may be shown once. Read-outs that look alike come from different tables or passages of the source.
# Columns and labels:
# JR-FL = experiment: Infection by single-round luciferase viruses, HIV-1 JR-FL envelope; format: cell-based; details: Human immunodeficiency virus 1, 48 h, read-out: JR-FL (μM)
# [1] = Assessment of the maximum tolerated dose (MTD); details: mouse, in vivo, ip; intraperitoneal, CD-1 mice
# Experimental: Procedure: (+)-BNM-III-170 was dissolved in DMSO to a final concentration of 10 mg/mL. This solution was then used for intraperitoneal administration to CD-1 mice at various doses to examine for visible signs of intolerance after compound dosing. This included an assessment of hyper- or hypoactivity, altered locomotion, ataxia, sedation, or other visible abnormalities. The compound was ultimately tested at three doses (30 mg/kg, 10 mg/kg and 3 mg/kg), as outlined below, with the amounts injected per mouse and the behavioral observations indicated for each dosing group.
# YU-2 = experiment: Infection by single-round luciferase viruses, HIV-1 YU-2 envelope; format: cell-based; details: Human immunodeficiency virus 1, 48 h, read-out: YU-2 (μM)
# Experimental: (§1) Compounds: Compounds are dissolved in dimethyl sulfoxide at a stock concentration of 10 mM, aliquoted, and stored at −20° C. Each compound is then diluted to 1 mM in serum-free Dulbecco's modified Eagle medium (DMEM) and used for different assays.
# (§2) Cell Lines: 293T human embryonic kidney and Cf2Th canine thymocytes (ATCC) are grown at 37° C. and 5% CO2 in Dulbecco's modified Eagle's medium (Invitrogen) containing 10% fetal bovine serum (Sigma) and 100 μg/mL penicillin-streptomycin (Mediatech, Inc.). Cf2Th cells stably expressing human CCR5 and CD4 are grown in medium supplemented with 0.4 mg/mL G418 and 0.2 mg/mL hygromycin (Invitrogen).
# (§3) Recombinant Luciferase Viruses: 293T human embryonic kidney cells were co-transfected with plasmids expressing the pCMVΔP1Δenv HIV-1 Gag-Pol packaging construct, the R5 YU2 envelope glycoproteins, or the envelope glycoprotein of the control amphotropic murine leukemia virus (A-MLV), and the firefly luciferase-expressing vector at a DNA ratio of 1:1:3 μg using the Effectene transfection reagent (Qiagen). Co-transfection produced single-round, replication-defective viruses. The virus-containing supernatants were harvested 36-40 h after transfection, spun, aliquoted, and frozen at −80° C. until further use. The reverse transcriptase (RT) activities of all viruses were measured as described in Rho, H. M., et al. Virology 1981, 112, 355-360.
# (§4) Infection by Single-Round Luciferase Viruses. Cf2Th-CCR5-CD4 target cells were seeded at a density of 6×10^3 cells/well in 96-well luminometer-compatible tissue culture plates (PerkinElmer) 24 h before infection. On the day of infection, CD4-mimetic compounds of interest (0-100 μM) were incubated with recombinant viruses (10,000 RT units) at 37° C. for 30 min. In the case of sensitization assays, a constant concentration of compounds was incubated with virus for 30 min at 37° C.; then, 17b or other antibodies (0-100 μg/mL) were added to the virus/compound mixture and incubated for an additional 30 min at 37° C. The mixtures were then added to the target cells and incubated for 48 h at 37° C.; after this time, the medium was removed from each well, and the cells were lysed by the addition of 30 μL passive lysis buffer (Promega) and three freeze-thaw cycles. An EG&G Berthold Microplate Luminometer LB 96V was used to measure the luciferase activity of each well after the addition of 100 μL of luciferin buffer (15 mM MgSO4, 15 mM KPO4, pH 7.8, 1 mM ATP, and 1 mM dithiothreitol) and 50 μL of 1 mM Firefly D-Luciferin Free Acid 99% (Prolume).
# monomeric YU-2 gp120 = biological target: T1, monomeric YU-2 gp120 (Human immunodeficiency virus type 1 group M subtype B, UniProt P35961); experiment: biochemical; format: binding, HIV-1; details: ITC, 25° C., PBS pH 7.4, 2% DMSO
# T1 construct: containing monomeric YU-2 gp120 at a concentration of 2 μM
# Experimental: Isothermal Titration Calorimetry. Thermodynamic parameters for the binding of the different inhibitors to gp120 were obtained by isothermal titration calorimetry (ITC) using a VP-ITC microcalorimeter from MicroCal/GE Healthcare (Northampton, Mass., USA). The titrations were performed at 25° C. by injecting 10 μL aliquots of inhibitor solution into the calorimetric cell (volume ˜1.4 mL) containing monomeric YU-2 gp120 at a concentration of 2 μM. […] In all titration experiments, gp120 and the different inhibitors were equilibrated with PBS, pH 7.4, with 2% DMSO. The heat evolved upon each injection of inhibitor was obtained by integration of the calorimetric signal. The heat associated with inhibitor binding to gp120 was obtained by subtracting the heat of dilution from the heat of reaction.
# AD8 = experiment: Infection by single-round luciferase viruses, HIV-1 AD8 envelope; format: cell-based; details: Human immunodeficiency virus 1, 48 h, read-out: AD8 (μM)
# [2] = Evaluation of blood-brain barrier: brain and plasma concentrations; format: in vivo; details: 1 hr post IP at 5 mg/kg, female CD1 mice
# Experimental: Compound BNM-III-170 was administered to mice under a protocol approved by the University of Pennsylvania Institutional Animal Care and Use Committee. Specifically, BNM-III-170, dissolved in DMSO, was administered IP at 5 mg/kg to 3 month old female CD1 mice. Mice were euthanized 1 hour post dose. Brain and plasma were then collected.
# Hemi-brains were homogenized with 10 mM ammonium acetate pH 4.0 (50% w/v) using a sonic dismembrator. Brain homogenate and plasma were extracted with 4 parts (v/v) acetonitrile, vortexed, and centrifuged at 15,000 g for 10 minutes. Supernatants were analyzed by LC-MS/MS using a Waters Acuity UPLC-TQMS. Samples (5 μL) were separated using a BEH C18 column (1.7 μm, 2.1×50 mm) at 0.6 mL/min from 5 to 95% acetonitrile with 0.1% formic acid over 2 minutes. BNM-III-170 was detected in positive ion mode using selected reaction monitoring of a specific collision induced ion transition (447.3>184.1 m/z). Unknown peak areas were quantified against standard curves constructed with BNM-III-170 spiked mouse brain homogenate or plasma extracted as above to final concentrations from 1 to 1000 ng/mL.
# A-MLV = experiment: Infection by single-round luciferase viruses, control A-MLV envelope; format: cell-based, amphotropic murine leukemia virus; details: Murine leukemia virus, 48 h, read-out: A-MLV (μM)
# Experimental: as §1, §2, §3, §4
# gp120 = gp120 (Human immunodeficiency virus type 1 group M subtype B, UniProt P35961); details: background statement; cited from earlier work
Structure (SMILES),IC50 (JR-FL) [µM],MTD [1] [mg/kg],IC50 (YU-2) [µM],Kd (monomeric YU-2 gp120) [µM],ΔG (monomeric YU-2 gp120) [kcal/mol],ΔH (monomeric YU-2 gp120) [kcal/mol],−TΔS (kcal/mol) (monomeric YU-2 gp120),IC50 (AD8) [µM],B/P ([2]; individual mice 1-3),Brain ([2]; individual mice 1-3),Plasma ([2]; individual mice 1-3),"Kp at 1 h ([2]; female, CD1, mouse, brain, ip, 5 mg/kg, AVG of 3 mice, read-out: B/P)","concentration at 1 h ([2]; female, CD1, mouse, brain, ip, 5 mg/kg, AVG of 3 mice, read-out: Brain) [ng/g]","concentration at 1 h ([2]; female, CD1, mouse, plasma, ip, 5 mg/kg, AVG of 3 mice, read-out: Plasma) [ng/mL]",IC50 (A-MLV) [µM],favorable enthalpy change (gp120) [kcal/mol],"unfavorable entropy change, −TΔS, to Gibbs energy (gp120) [kcal/mol]"
CNCc1ccc2c(c1)C[C@H](CNC(=N)N)[C@H]2NC(=O)C(=O)Nc1ccc(Cl)c(F)c1 [(+)-BNM-III-170],14.2 ± 4.5,3 to 9,1.5 ± 0.8,0.047,-10.0,-20.7,+10.7 kcal/mol,6.4 ± 1,0.51 and 0.14 and 0.45,268 ng/g and 131 ng/g and 122 ng/g,522 ng/mL and 910 ng/mL and 270 ng/mL,0.37,174,567,> 100,–,–
CN(Cc1ccccc1)Cc1ccc2c(c1)C[C@H](CNC(=N)N)[C@H]2NC(=O)C(=O)Nc1ccc(Cl)c(F)c1 [(+)-BNM-IV-125],14 ± 2,–,–,–,–,–,–,–,–,–,–,–,–,–,> 100,–,–
CN(Cc1ccc2c(c1)C[C@H](CNC(=N)N)[C@H]2NC(=O)C(=O)Nc1ccc(Cl)c(F)c1)C(=N)N [(+)-BNM-IV-147],6.2 ± 0.5,–,0.8 ± 0.02,0.095,-9.6,-15.4,+5.8 kcal/mol,3.3 ± 0.2,–,–,–,–,–,–,> 100,–,–
N=C(N)NC[C@H]1Cc2ccccc2[C@@H]1NC(=O)C(=O)Nc1ccc(Cl)c(F)c1 [(+)-DMJ-II-121],66.8 ± 9.5,–,3.8 ± 1.3,–,-9.5,-17.9,+8.4 kcal/mol,8.5 ± 2.1,–,–,–,–,–,–,94.3 ± 5.7,–,–
CNCc1ccc2c(c1)[C@H](NC(=O)C(=O)Nc1ccc(Cl)c(F)c1)[C@@H](CNC(=N)N)C2 [(+)-JP-III-048],37.3 ± 13.8,–,2.1 ± 0.9,0.024,-10.4,-28.2,+17.8 kcal/mol,6.7 ± 0.6,–,–,–,–,–,–,> 100,–,–
CN(Cc1ccc2c(c1)[C@H](NC(=O)C(=O)Nc1ccc(Cl)c(F)c1)[C@@H](CNC(=N)N)C2)C(=N)N [(−)-BNM-IV-197],19.5 ± 10.1,–,1.2 ± 0.3,0.095,-9.6,-14.2,+4.6 kcal/mol,1.3 ± 0.2,–,–,–,–,–,–,83.7 ± 16.4,–,–
CC1(C)CC(NC(=O)C(=O)Nc2ccc(Cl)cc2)CC(C)(C)N1 [NBD-556],–,–,–,–,–,–,–,–,–,–,–,–,–,–,–,-24.5,17.1

# From patent US9975848B2, “Inhibitors of HIV-1 entry and methods of use thereof” (priority 2014, dated 2018)
